Laboratory results as given in PubChem BioAssay (NCI).
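Test compounds were applied to cells in 96-well plates for 48 hours at 5 doses. At the TGI there is no net growth.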 Where a SMILES comes first, the peptide text is derived from it. [ ]: non-standard residue; d: D form. The star is where a group is joined. ξ: configuration not given here. dThr(3ξ) = CC(O)[C@@H](N)C(=O)O; dNMeL = CN[C@H](CC(C)C)C(=O)O; OBn = c1ccc(CO*)cc1; ξLac = CC(O)C(=O)O

Tests used:
Assay in all cases: NCI anticancer screen, dose series, 48 h
HOP-92 NSCLC = tested on: HOP-92 NSCLC
COLO 205 colon = tested on: COLO 205 colon
M14 melanoma = tested on: M14 melanoma
786-0 renal = tested on: 786-0 renal
SF-268 CNS = tested on: SF-268 CNS
UACC-62 melanoma = tested on: UACC-62 melanoma
ACHN renal = tested on: ACHN renal
HT29 colon = tested on: HT29 colon
BT-549 breast = tested on: BT-549 breast
PC-3 prostate = tested on: PC-3 prostate
NCI/ADR-RES ovarian = tested on: NCI/ADR-RES ovarian
HCT-15 colon = tested on: HCT-15 colon
MCF7 breast = tested on: MCF7 breast
OVCAR-3 ovarian = tested on: OVCAR-3 ovarian
NCI-H460 lung = tested on: NCI-H460 lung
HCC-2998 colon = tested on: HCC-2998 colon
DU-145 prostate = tested on: DU-145 prostate
SN12C renal = tested on: SN12C renal
RPMI-8226 leukemia = tested on: RPMI-8226 leukemia

SMILES | TGI (HOP-92 NSCLC) [µM] | TGI (COLO 205 colon) [µM] | TGI (M14 melanoma) [µM] | TGI (786-0 renal) [µM] | TGI (SF-268 CNS) [µM] | TGI (UACC-62 melanoma) [µM] | TGI (ACHN renal) [µM] | TGI (HT29 colon) [µM] | TGI (BT-549 breast) [µM] | TGI (PC-3 prostate) [µM] | TGI (NCI/ADR-RES ovarian) [µM] | TGI (HCT-15 colon) [µM] | TGI (MCF7 breast) [µM] | TGI (OVCAR-3 ovarian) [µM] | TGI (NCI-H460 lung) [µM] | TGI (HCC-2998 colon) [µM] | TGI (DU-145 prostate) [µM] | TGI (SN12C renal) [µM] | TGI (RPMI-8226 leukemia) [µM]
CCCCOC(=O)C1CN2C=CC=NC2=NC1(C(F)(F)F)C(F)(F)F (stereo unspecified) | > 100 | > 100 | > 100 | > 100 | > 100 | > 100 | > 100 | > 100 | > 100 | > 100 | > 100 | > 100 | > 100 | > 100 | > 100 | > 100 | > 100 | > 100 | > 100
O=C1c2ccccc2-c2nc3ccc(O)cc3n21 | > 100 | > 100 | > 100 | > 100 | > 100 | > 100 | > 100 | > 100 | > 100 | > 100 | > 100 | > 100 | > 100 | > 100 | > 100 | > 100 | > 100 | > 100 | > 100
N#CC1=C(S)N(C2OC(CO)C(O)C(O)C2O)C(c2ccccc2)=CC1c1ccccc1 (stereo unspecified) | > 100 | > 100 | > 100 | > 100 | > 100 | 62.7 | > 100 | > 100 | > 100 | > 100 | > 100 | > 100 | > 100 | 98.5 | > 100 | 96.4 | > 100 | > 100 | > 100
COC(=O)C(=O)c1c2ccccc2n2ccc3c4ccccc4[nH]c3c12 | > 10 | > 10 | > 10 | > 10 | > 10 | > 10 | > 10 | > 10 | > 10 | > 10 | > 10 | > 10 | > 10 | > 10 | > 10 | > 10 | > 10 | > 10 | > 10
C=CC1ON(C)CCc2cc(OC)c(OC)cc21 (stereo unspecified) | > 100 | > 100 | > 100 | > 100 | > 100 | > 100 | > 100 | > 100 | > 100 | > 100 | > 100 | > 100 | > 100 | > 100 | > 100 | > 100 | > 100 | > 100 | > 100
c1ccc(C2C3=C(CCCC3)Nc3nc4cc5ccccc5cc4n32)cc1 (stereo unspecified) | > 100 | > 100 | > 100 | > 100 | > 100 | > 100 | > 100 | > 100 | > 100 | > 100 | > 100 | > 100 | > 100 | > 100 | > 100 | > 100 | > 100 | > 100 | > 100
COC(=O)[C@@H]1C[C@H]([Se]c2ccccc2)CN1S(=O)(=O)c1ccc(C)cc1 | > 100 | > 100 | > 100 | > 100 | > 100 | > 100 | > 100 | > 100 | > 100 | > 100 | > 100 | > 100 | > 100 | > 100 | > 100 | > 100 | > 100 | > 100 | > 100
N#Cc1c(-c2ccccc2)c(N=Nc2ccc(F)cc2)c(=O)n2c1[nH]c1ccccc12 | 14.2 | 13 | 27.3 | 14.3 | 39.5 | 26.3 | > 64.6 | 12 | 89.2 | > 35.2 | 20.6 | > 100 | > 100 | 8.57 | 19.9 | > 100 | > 100 | 10.2 | 12.9
CCOC(=O)C(NC(=O)c1ccccc1)(Nc1ccc(S(=O)(=O)Nc2nc(C)cc(C)n2)cc1)C(F)(F)F (stereo unspecified) | > 100 | > 100 | > 100 | > 100 | > 100 | > 100 | > 100 | > 100 | > 100 | > 100 | > 100 | > 100 | > 100 | > 100 | > 100 | > 100 | > 100 | > 100 | > 100
CC(=O)CCNc1ccc(-c2cc(-c3ccc(N(C)C)cc3)nc3ccc4ccccc4c23)cc1 | > 100 | > 88.3 | > 88.8 | > 100 | > 100 | > 100 | > 100 | > 100 | > 100 | > 100 | > 100 | > 100 | > 100 | > 100 | > 100 | > 100 | > 100 | > 100 | > 100
COC(=O)C1Cc2cccc(C)c2C1 (stereo unspecified) | > 100 | > 100 | > 100 | > 100 | > 100 | > 100 | > 100 | > 100 | > 100 | > 100 | > 100 | > 100 | 71.6 | > 100 | > 100 | > 100 | > 100 | > 100 | > 100
O=C(c1cccc(OCc2ccccc2)c1OCc1ccccc1)N1CCSC1=S | > 100 | 26.4 | > 100 | > 100 | > 52.8 | 42.6 | > 100 | > 100 | > 100 | > 100 | > 100 | > 100 | > 100 | 62.9 | > 100 | > 100 | > 100 | > 100 | 43
CC1=NN(C(=O)CC(=O)Nc2ccccc2Cl)C(=O)C1N=Nc1ccc(C(=O)O)cc1 (stereo unspecified) | > 100 | > 100 | > 100 | > 100 | > 100 | > 100 | > 100 | > 100 | > 100 | > 100 | > 100 | > 100 | > 100 | > 100 | > 100 | > 100 | > 100 | > 100 | > 100
COc1cccc2c(NNc3ccccc3)c3ccc([N+](=O)[O-])cc3nc12 | > 100 | > 100 | > 100 | 73.3 | > 100 | > 100 | > 100 | > 100 | 71.4 | > 100 | > 100 | > 100 | > 100 | > 100 | > 100 | > 100 | > 100 | > 100 | > 100
Cc1cc2c(c(C=Nc3ccc([N+](=O)[O-])cc3)c1)OC1(C=C2)Oc2ccccc2C(=O)N1C (stereo unspecified) | 50.9 | 54.3 | 57.8 | 54.3 | 51.2 | 34.9 | 50.5 | 36.3 | 58.7 | 44.4 | 49.1 | 39.4 | 46 | 60.9 | 42.7 | 36.2 | 54.2 | 46.2 | 93.1
CCOC(=O)C(Cc1c2ccccc2cc2ccccc12)(NC(C)=O)C(=O)OCC | 83.1 | > 100 | > 100 | > 100 | > 100 | > 80.9 | > 100 | > 100 | > 100 | > 100 | > 100 | > 100 | > 100 | > 100 | > 100 | > 100 | > 100 | > 100 | > 100
NC1CC(=O)c2c(Cl)sc(Cl)c21 (stereo unspecified) | 2.91 | 2.57 | 35.4 | 2.87 | 67.4 | 7.78 | 6.14 | 14.1 | 10.7 | 18 | 49.9 | 3.94 | 7.9 | 24 | 33.7 | 22.7 | 16 | 14.4 | 7.76
CC(=O)OC(C)[C@@H](NC(=O)[C@@H](CC(C)C)N(C)C(=O)[C@@H]1CCCN1C(=O)C(C)O)C(=O)OCc1ccccc1 (stereo partly specified) (H-[ξLac]P[dNMeL][dThr(3ξ)](Ac)-OBn) | > 100 | > 100 | > 100 | > 100 | > 100 | > 100 | > 100 | > 100 | > 100 | > 100 | > 100 | > 100 | > 100 | > 100 | > 100 | > 100 | > 100 | > 100 | > 100
O=c1[nH]c(-c2cccc(F)c2)nc2ccccc12 | > 72 | > 100 | > 100 | > 100 | > 100 | > 67.3 | > 68.7 | > 100 | > 68.8 | > 100 | > 100 | > 100 | > 100 | > 100 | > 100 | > 100 | > 100 | > 92 | > 100
